Test results published in patent publication US20060210504A1, “Compositions and methods for inhibiting eccrine perspiration in humans” (priority 2001, published 2006).

Legend:
[1] = test system: sweat production in the axilla (eccrine sweat glands); assay: Antiperspirant efficacy evaluation, standard hot room protocol (FDA OTC Antiperspirant Tentative Final Monograph); type: in vivo, human (healthy female volunteers); conditions: for mean reduction in sweat production: axilla, once daily for five days, about one hour after fifth treatment
Experimental: (§1) The antiperspirant efficacy and safety of glycopyrrolate, a quaternary ammonium salt, was tested pursuant to protocol prescribed by the Food and Drug Administration, 21CFR Part 10.90 The OTC Antiperspirant Tentative Final Monograph. So as to separate vehicle from drug effects, glycopyrrolate was presented as a simple solution in varying concentrations of 0.3%, 1% and 3% weight per volume. In each treatment group as listed below, the glycopyrrolate solution and a placebo of distilled water were applied to the axilla of healthy female volunteers. In particular, the placebo was applied to one armpit while the test solution was applied to the other armpit of a given volunteer. The designation of armpits (namely, right or left) for the application of placebo vs. solution was randomized according to the FDA protocol. In the placebo Group B, distilled water was applied to both axilla of each volunteer. Treatments were applied once daily for five consecutive days.
The groups comprised the following: • Group A—0.3% glycopyrrolate versus distilled water; • Group B—Placebo (distilled water applied to both axilla); • Group C—1% glycopyrrolate versus distilled water; • Group D—3% glycopyrrolate versus distilled water;
(§2) The clinical study was conducted among 37 healthy female volunteers. The testing further conformed to ICH guidelines and the requirements of the 1964 Declaration of Helsinki and its subsequent amendments. The study was a pilot, single-center, randomized, controlled, double-blind assessment of the safety, tolerability and antiperspirant efficacy of glycopyrrolate when applied to the axilla of healthy female volunteers.
The study was conducted in two cohorts of volunteers. The first cohort comprised fourteen (14) subjects, with […] subjects assigned to placebo Group B and ten (10) subjects assigned to 0.3% Group A.
Nine (9) days following the completion of the first cohort, a second cohort of twenty-three (23) subjects were tested, with three (3) subjects assigned to placebo Group B, ten (10) subjects assigned to 1% Group C, and ten (10) subjects assigned to 3% Group D.
(§3) The antiperspirant efficacy evaluation was performed approximately one hour after the fifth treatment using a standard hot room protocol. Safety and tolerance were measured by assessment of blood chemistry and hematology, electrocardiograms, daily monitoring of heart rate, blood pressure and body temperature, assessment of visual effects and dermal irritancy, and subjective assessment of tolerance.

[2] = test system: healthy female volunteers; assay: Safety and tolerance assessment on topical application to the axilla; type: in vivo, human
Experimental: as §1, §2, §3

[3] = 1% w/v simple solution (Group C) vs distilled water
[4] = 3% w/v simple solution (Group D) vs distilled water
[5] = 0.3%, 1% and 3% w/v topical to axilla, once daily for five days

C[N+]1(C)CCC(OC(=O)C(O)(c2ccccc2)C2CCCC2)C1 (stereo not drawn) [glycopyrrolate]
antiperspirant efficacy in words ([1]; 0.3% concentration): essentially ineffective | inhibition enjoyed by two subjects ([1]; 0.3% concentration, two subjects): 0.50 % inhibition | statistical significance of reduction in sweat production ([1]; 0.3% w/v simple solution (Group A) vs distilled water): no statistically significant reduction in sweat production | binomial criteria of 95% confidence with at least 50% of the population showing at least 20% reduction in sweating ([1]; 1% group): met the binomial criteria | range of effect (inhibition of sweating across subjects) ([1]; 1% treatment group): −16-to 54 % inhibition | statistical significance of reduction in sweat production [1, 3]: significant sweat reduction | mean reduction in sweat production [1, 3]: 32.85%±9.81 | binomial criteria of 95% confidence with at least 50% of the population showing at least 20% reduction in sweating ([1]; 3% group): met the binomial criteria | range of effect (inhibition of sweating across subjects) ([1]; 3% treatment group): −13 to 90 % inhibition | statistical significance of reduction in sweat production [1, 4]: significant sweat reduction | mean reduction in sweat production [1, 4]: 54.72%±20.23 | dose dependence of antiperspirant effect ([1]; simple solution, 0.3%, 1% and 3%, highest efficacy at 3%): dose-dependent antiperspirant effect | pupillary dilation or other systemic symptoms of anticholinergic agents [2, 5]: no signs of pupillary dilation or other systemic symptoms | serious adverse events [2, 5]: No serious adverse events | adverse events, clinical significance ([2]; reviewed by principal investigator and attendant cardiologist): clinically non-significant
